These results are taken from PubChem BioAssay AID248 (DTP/NCI, 2004).

“And” between values parts separate entries of the source, which are not always exact repeats. Identical values can stand only once. Toxic doses and inconclusive results are not listed.

This assay concerns L1210 leukemia ip in BDF1 mice, survival T/C. As to the kind of experiment: NCI In Vivo Anticancer Drug Screen. Data for tumor model L1210 Leukemia (intraperitoneal) in B6D2F1 (BDF1) mice. Particulars: endpoint: mean survival time, higher = longer survival. The method in brief: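 Mice bearing the transplanted tumor received compound or vehicle. Survival of the treated group was divided by that of the vehicle-treated control group to give the ratio.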

The mark [1] stands for this setting: dose: 100.0 mg/kg/injection, schedule: Q01DX001 (ip), vehicle: saline.
Setting [2] is: dose: 200.0 mg/kg/injection, schedule: Q01DX001 (ip), vehicle: saline.
Setting [3] is: dose: 400.0 mg/kg/injection, schedule: Q01DX001 (ip), vehicle: saline.
Setting [4] is: dose: 100.0 mg/kg/injection, schedule: Q01DX009 (ip), vehicle: Klucel (hydroxypropylcellulose) (HPC).
[5] abbreviates: dose: 400.0 mg/kg/injection, schedule: Q01DX001 (ip), vehicle: carboxymethylcellulose (CMC).
The mark [6] stands for this setting: dose: 100.0 mg/kg/injection, schedule: Q04DX003 (ip), vehicle: Klucel (hydroxypropylcellulose) (HPC).
The mark [7] stands for this setting: dose: 200.0 mg/kg/injection, schedule: Q04DX003 (ip), vehicle: Klucel (hydroxypropylcellulose) (HPC).
[8] abbreviates: dose: 400.0 mg/kg/injection, schedule: Q04DX003 (ip), vehicle: Klucel (hydroxypropylcellulose) (HPC).
[9] abbreviates: dose: 100.0 mg/kg/injection, schedule: Q01DX001 (ip), vehicle: Klucel (hydroxypropylcellulose) (HPC).
[10] abbreviates: dose: 200.0 mg/kg/injection, schedule: Q01DX001 (ip), vehicle: Klucel (hydroxypropylcellulose) (HPC).

As for `O=C(NCO)NCO`, the T/C is 95 % of control (dose: 75.0 mg/kg/injection, schedule: Q01DX001 (ip), vehicle: Klucel (hydroxypropylcellulose) (HPC)); 93 % of control (dose: 150.0 mg/kg/injection, schedule: Q01DX001 (ip), vehicle: Klucel (hydroxypropylcellulose) (HPC)); 97 % of control (dose: 300.0 mg/kg/injection, schedule: Q01DX001 (ip), vehicle: Klucel (hydroxypropylcellulose) (HPC)).

Consider `Cc1cc(N)c(C(=O)O)cc1C`, for which the T/C by setting is: (dose: 50.0 mg/kg/injection, schedule: Q01DX001 (ip), vehicle: saline) 104 % of control; under setting [1], 107 % of control; under setting [2], 104 % of control; under setting [3], 104 % of control.

As to `CC(C)(C)N1CCC1C(=O)NN` (configuration not stated), the T/C was 96 % of control (dose: 50.0 mg/kg/injection, schedule: Q01DX009 (ip), vehicle: saline); 93 % of control (dose: 100.0 mg/kg/injection, schedule: Q01DX009 (ip), vehicle: saline); 93 % of control (dose: 200.0 mg/kg/injection, schedule: Q01DX009 (ip), vehicle: saline).

`CC(C)(C)C1=CC(=O)C(Cl)(C(C)(C)C)C(Cl)C1=O` (configuration not stated): the T/C was 97 % of control (dose: 100.0 mg/kg/injection, schedule: Q01DX001 (ip), vehicle: saline with Tween-80) and 90 % of control (dose: 200.0 mg/kg/injection, schedule: Q01DX001 (ip), vehicle: saline with Tween-80).

For `Cc1cc(C)c(NC(=O)c2c(Cl)c(Cl)c(Cl)c(Cl)c2C(=O)O)c(C)c1`, the T/C runs as follows: (dose: 25.0 mg/kg/injection, schedule: Q01DX009 (ip), vehicle: Klucel (hydroxypropylcellulose) (HPC)) 102 % of control; (dose: 50.0 mg/kg/injection, schedule: Q01DX009 (ip), vehicle: Klucel (hydroxypropylcellulose) (HPC)) 105 % of control; under setting [4], 94 % of control and 116 % of control.

`Nc1[nH]c(=S)[nH]c(=O)c1N=Nc1c(Br)cc(S(N)(=O)=O)cc1Br`: the T/C (dose: 100.0 mg/kg/injection, schedule: Q01DX001 (ip), vehicle: carboxymethylcellulose (CMC)) is 94 % of control; the T/C (dose: 200.0 mg/kg/injection, schedule: Q01DX001 (ip), vehicle: carboxymethylcellulose (CMC)) is 100 % of control; the T/C under setting [5] was 103 % of control.

For `CN(C)N=Nc1ccc(C(=O)N/N=C/c2ccc(I)cc2)cc1`, the T/C was 101 % of control (dose: 75.0 mg/kg/injection, schedule: Q04DX003 (ip), vehicle: Klucel (hydroxypropylcellulose) (HPC)); 97 % of control (dose: 150.0 mg/kg/injection, schedule: Q04DX003 (ip), vehicle: Klucel (hydroxypropylcellulose) (HPC)); 89 % of control (dose: 300.0 mg/kg/injection, schedule: Q04DX003 (ip), vehicle: Klucel (hydroxypropylcellulose) (HPC)).

Regarding `COC1C(O)C(CO)OC1n1cnc2c(=S)nc(N)[nH]c21` (configuration not stated), the T/C reads like this: (dose: 266.0 mg/kg/injection, schedule: Q01DX001 (ip), vehicle: carboxymethylcellulose (CMC)) 153 % of control; under setting [5], 157 % of control; (dose: 600.0 mg/kg/injection, schedule: Q01DX001 (ip), vehicle: carboxymethylcellulose (CMC)) 153 % of control.

In the case of `CC1(C)C/C(=C\c2ccc(Br)cc2)C(=O)c2ccccc21`, the T/C was 98 % of control under setting [4]; 106 % of control under setting [6]; 95 % of control (dose: 200.0 mg/kg/injection, schedule: Q01DX009 (ip), vehicle: Klucel (hydroxypropylcellulose) (HPC)); 106 % of control under setting [7]; 101 % of control (dose: 400.0 mg/kg/injection, schedule: Q01DX009 (ip), vehicle: Klucel (hydroxypropylcellulose) (HPC)); 104 % of control under setting [8].

Turning to `CC(=O)Oc1c(Cl)c(Cl)c(Cl)c(Cl)c1Cl`, the T/C runs as follows: (dose: 100.0 mg/kg/injection, schedule: Q01DX009 (ip), vehicle: saline sonified) 101 % of control; under setting [6], 100 % of control; (dose: 200.0 mg/kg/injection, schedule: Q01DX009 (ip), vehicle: saline sonified) 107 % of control; under setting [7], 100 % of control; (dose: 400.0 mg/kg/injection, schedule: Q01DX009 (ip), vehicle: saline sonified) 106 % of control; under setting [8], 93 % of control.

Take `O=C(CCCC(O)(C1CC1)C1CC1)C1CC1`: the T/C by setting is: (dose: 100.0 mg/kg/injection, schedule: Q01DX009 (ip), vehicle: acetone) 106 % of control; (dose: 100.0 mg/kg/injection, schedule: Q04DX003 (ip), vehicle: acetone) 112 % of control; (dose: 200.0 mg/kg/injection, schedule: Q01DX009 (ip), vehicle: acetone) 106 % of control; (dose: 200.0 mg/kg/injection, schedule: Q04DX003 (ip), vehicle: acetone) 101 % of control; (dose: 400.0 mg/kg/injection, schedule: Q01DX009 (ip), vehicle: acetone) 109 % of control; (dose: 400.0 mg/kg/injection, schedule: Q04DX003 (ip), vehicle: acetone) 101 % of control.

As to `CNc1ccccc1C(=O)NNS(=O)(=O)c1ccc(C)cc1`, the T/C is 102 % of control under setting [1], 102 % of control under setting [2] and 90 % of control under setting [3].

Turning to `c1ccc2ocnc2c1`, the T/C runs as follows: under setting [6], 94 % of control; under setting [7], 96 % of control; under setting [8], 113 % of control.

Turning to `Cc1ccc(NCC(O)CN2CCN(CC(O)CNc3ccc(C)cc3)CC2)cc1` (configuration not stated), the T/C is 106 % of control (dose: 100.0 mg/kg/injection, schedule: Q01DX001 (ip), vehicle: other); 88 % of control under setting [6]; 95 % of control (dose: 200.0 mg/kg/injection, schedule: Q01DX001 (ip), vehicle: other); 94 % of control under setting [7]; 95 % of control (dose: 400.0 mg/kg/injection, schedule: Q01DX001 (ip), vehicle: other); 91 % of control under setting [8].

With `c1ccc2c(c1)C1CCCCC2c2ccccc21`, the T/C is 102 % of control under setting [9]; 97 % of control under setting [10]; 100 % of control (dose: 400.0 mg/kg/injection, schedule: Q01DX001 (ip), vehicle: Klucel (hydroxypropylcellulose) (HPC)).

For `O=C(O)COc1ccc(F)c(F)c1`, the T/C runs as follows: (dose: 100.0 mg/kg/injection, schedule: Q04DX002 (ip), vehicle: Klucel (hydroxypropylcellulose) (HPC)) 90 % of control; (dose: 200.0 mg/kg/injection, schedule: Q04DX002 (ip), vehicle: Klucel (hydroxypropylcellulose) (HPC)) 104 % of control; (dose: 400.0 mg/kg/injection, schedule: Q04DX002 (ip), vehicle: Klucel (hydroxypropylcellulose) (HPC)) 93 % of control.

With `CN(C)C(C#N)C(=O)c1ccccc1` (configuration not stated), the T/C is 97 % of control and 98 % of control under setting [1]; 93 % of control under setting [3].

Take `Cc1ccccc1CC#N`: the T/C (dose: 6.25 mg/kg/injection, schedule: Q01DX009 (ip), vehicle: saline) is 108 % of control; the T/C (dose: 12.5 mg/kg/injection, schedule: Q01DX009 (ip), vehicle: saline) was 108 % of control; the T/C (dose: 25.0 mg/kg/injection, schedule: Q01DX009 (ip), vehicle: saline) is 101 % of control.

On to `CN/N=C/c1ccc(C(=O)NC(C)C)cc1`, for which the T/C runs as follows: (dose: 25.0 mg/kg/injection, schedule: Q04DX003 (ip), vehicle: Klucel (hydroxypropylcellulose) (HPC)) 98 % of control; (dose: 50.0 mg/kg/injection, schedule: Q04DX003 (ip), vehicle: Klucel (hydroxypropylcellulose) (HPC)) 102 % of control; under setting [6], 102 % of control; under setting [7], 109 % of control.

Take `Cc1ccc(S(=O)(=O)NN=C(/C=C/c2ccccc2)/C=C/c2ccccc2)cc1`: the T/C is 102 % of control (dose: 50.0 mg/kg/injection, schedule: Q01DX001 (ip), vehicle: Klucel (hydroxypropylcellulose) (HPC)); 107 % of control under setting [9]; 103 % of control under setting [10].

`CC(=O)C1CCC2C3=CC=C4CC(O)CCC4(C)C3=CCC12C` (configuration not stated): the T/C reads like this: under setting [6], 96 % of control; under setting [7], 93 % of control; under setting [8], 93 % of control.

As for `COc1ccc2c(c1OC)C1(CCN(C)C)CC(O)CCC1C=C2` (configuration not stated), the T/C was 102 % of control (dose: 100.0 mg/kg/injection, schedule: Q04DX003 (ip), vehicle: saline) and 102 % of control (dose: 200.0 mg/kg/injection, schedule: Q04DX003 (ip), vehicle: saline).
